Laboratory results taken from patent publication US20250205369A1, “DENDRIMER COMPOSITIONS AND USE IN TREATMENT OF NEUROLOGICAL AND CNS DISORDERS” (THE JOHNS HOPKINS UNIVERSITY, priority 2014, published 2025).

How the values were obtained:
MeCP2-null mice = assay: NAC and D-NAC therapy in MeCP2-null (RTT) mice: survival, behavior, appearance; type: in vivo; settings: MeCP2-null pups
Protocol: Detailed materials and methods used in the experiments below, including protocols for making the dendrimers-Cy5 and dendrimers-drug conjugates, have been described by Kannan S et al Sci. Transl. Med., 4:130ra46 (2012) and in U.S. Pat. No. 8,889,101.
RTT mice were the Adrian Bird model available from Jackson Laboratory.
Weight and behavior were also assessed. Cytokines were measured using standard mice primers for the assessment of inflammatory markers (Kannan S et al Sci. Transl. Med., 4:130ra46 (2012)).
Conjugation of dendrimer conjugates. The conjugation of dendrimers to Cy5 was done using previously reported methods (Kannan et al., Science Trans. Med (April 2012). For drug experiments, dendrimers were conjugated to N-acetyl-cysteine and administered at doses ranging from 2-20 mg/kg at differing time points.
The mice were injected with D-drug or PBS every 3-4 days, Statistical analysis. The data was analyzed for the reproducibility using Student's t-test to determine the significance between two groups. A p-value equal to or less than 0.05 was considered significant.
Animals were videotaped prior to treatment every 3-4 days, and mobility, gait, tremors, paw clenching, paw clenching time, paw wringing, and respiration were all scored on a scale of 0-3, where ‘0’ indicates the worst score and ‘3’ is best or normal. […]

[1] = system: LPS-induced brain injury in a neonatal rabbit model of cerebral palsy; assay: LPS-induced brain injury in neonatal rabbit model of cerebral palsy; type: in vivo
Protocol: The therapeutic efficacy of GA-PAMAM-S-S-NAC dendrimer conjugate was evaluated after two days of animal treatment with lipopolysaccharide (LPS) to induce white matter injury and hypomyelination in the developing rabbit brain (an animal model of Cerebral Palsy).

microglial cells = assay: GSH depletion, ROS, NO, H2O2 and nitrite in microglial cells; type: cell-based; settings: highest concentration (5 mM)
plasma protein = settings: free drug; cited from earlier work

## CC(=O)N[C@@H](CS)C(=O)O [NAC, N-acetyl cysteine]
MeCP2-null mice; twice weekly therapy
  Safety / toxicity from survival: potential toxicity
MeCP2-null mice; twice weekly, 10 mg/kg (NAC basis) from PND21
  Survival (Kaplan-Meier) compared to non-treated animals: worse survival than non-treated Rett mice
[1]; free NAC vs conjugate
  Dose eliciting identical responses: 100 mg/kg
[1]; rabbit kits
  Fetal inflammation response and motor deficits compared to saline-treated kits: decrease in fetal inflammation response with improvement of motor deficits
Microglial cells
  Reduction of H2O2 levels: 30-40%
  Reduction of nitrite levels: 30-40%
Plasma protein
  Plasma protein binding: very high plasma protein binding
